What is called MIC is the least concentration at which growth counts as inhibited. As a reminder, the LD50 is the dose at which mortality reaches 50%. Low readings indicate a more toxic substance, high ones a less toxic substance.

These results are taken from US4503256A, “Phlorophenone derivatives, processes for preparing such compounds, uses and pharmaceutical compositions of phlorophenone compounds” (Noristan Limited, priority 1981, dated 1985).

Values after ≈ are worked out from the molar mass of the structure shown. Where only a bound is given, the exact number is not on record here.

For series [1], the system named is S. AUREUS. Description: Minimum Inhibitory Concentration (MIC), broth dilution in Brain Heart Infusion broth. It is filed as cell-based, Staphylococcus aureus. The conditions noted are these: Staphylococcus aureus; 37° C., 48 hours, Brain Heart Infusion broth; read-out: MIC S. AUREUS. On the procedure:
(§1) For testing against the bacteria, concentrations of each of the compounds were prepared in Brain Heart Infusion broth (Oxoid CM225) in two-fold steps from 1000 μg/ml to 1 μg/ml. Solutions containing 1000 μg/ml were prepared by dissolving 20 mg of each compound in 5 ml of acetone and this was then made up to 20 ml with Brain Heart Infusion Broth. Serial two-fold dilutions were then prepared in the broth down to 1 μg/ml.
(§2) For testing against the bacteria each of the prepared test concentrations and acetone controls prepared in Brain Heart Infusion were dispensed in 2 ml amounts for each organism. A growth control of 2 ml of Brain Heart Infusion was included in each series.
(§3) To each of the prepared sets of concentrations of each compound were added 0.1 ml aliquots of the organism suspensions prepared as described previously. All the bottles were incubated at 37° C. for 48 hours in the case of the bacteria and from 5 to 15 days for the fungi (until growth controls had grown in each case).
(§4) After incubation the broths were examined for evidence of growth. The lowest concentration of the test compound which prevented growth was recorded as the Minimum Inhibitory Concentration (MIC).
(In general: Broth dilution looks for growth in wells or tubes with falling amounts of substance.)

Series [2] has as its system St. PYOGENES
The description is as above. The series is classed as cell-based. The conditions noted are these: Streptococcus pyogenes, 37° C., 48 hours. On the procedure: as §1, §2, §3, §4

Series [3] deals with C. ALBICANS
Description: Minimum Inhibitory Concentration (MIC), dilution in Sabouraud liquid medium. The series is classed as cell-based. The conditions noted are these: Candida albicans, 37° C., 5 to 15 days. The method, then: (§5) For testing against the fungi, concentrations of each of the compounds were prepared in Sabouraud liquid medium in two-fold steps from 100 μg/ml to 0.1 μg/ml. 500 μg/ml solutions were prepared by dissolving 10 mg in 5 ml of acetone, made up to 20 ml with Sabouraud liquid medium. 4 ml of the 500 μg/ml concentration was then made up to 20 ml with Sabouraud liquid medium to give a concentration of 100 μg/ml. Serial two-fold dilutions were prepared from this in the same medium down to 0.1 μg/ml.
(§6) For the fungi the same procedure was followed using the concentrations made up in Sabouraud liquid medium. The Nystatin concentrations were also dispensed in 2 ml amounts for each organism. Growth controls of Sabouraud liquid medium were included in each series.
as §3, §4

Series [4] deals with Mic. CANIS. Described as above. It is filed as cell-based. The conditions noted are these: Microsporum canis, 37° C., 5 to 15 days. The method, then:
as §5, §6, §3, §4

Series [5] relates to Sp. SCHENKII
Described as above. The series is classed as cell-based. The conditions noted are these: 37° C., 5 to 15 days. The method, then:
as §5, §6, §3, §4

Series [6] has as its system Tr. MENTAGROPHYTES
The description is as above. The series is classed as cell-based. The following applies: Trichophyton mentagrophytes, 37° C., 5 to 15 days. On the procedure:
as §5, §6, §3, §4

In series [7] the test system is Tr. RUBRUM. Described as above. The series is classed as cell-based. The conditions noted are these: Trichophyton rubrum, 37° C., 5 to 15 days. On the procedure: as §5, §6, §3, §4
Series [8] in a line: Acute oral toxicity in CD-1 mice. It is filed as in vivo. The conditions noted are these: mouse, in vivo, male and female CD-1 mice, dose levels 1000, 464, 215 and 100 mg/kg, 7 days observation. The method, then: Male and female CD-1 mice were fasted for 18 hours prior to the experiment, but water was available ad libitum except during the observation period. The test compounds were prepared in 1% tragacanth and were administered orally to groups of two male and two female mice.
All compounds were tested at dose levels of 1000, 464, 215 and 100 mg/kg. Immediately after dosing, the mice were replaced in their "home" cage and were observed daily for 7 days post dose and any mortalities recorded.
The acute toxicities, as determined by the above procedure, of a number of representative compounds are given in the accompanying table.

Take `CC(C)=CCc1c(O)cc(O)c(C(=O)Cc2ccc(Cl)cc2)c1O` [Compound 14, 2-(4-Chlorophenyl)acetyl-4-(3-methylbuten-2-yl)phloroglucinol]: the MIC in series [1] came out at 16 µg/mL (≈ 46.1 µM); in series [2], 8 µg/mL (≈ 23.1 µM); in series [3], 100 µg/mL (≈ 288 µM); in series [4] it was 50 µg/mL (≈ 144 µM); in series [5], 100 µg/mL (≈ 288 µM); in series [6], 100 µg/mL (≈ 288 µM). In series [7], this molecule showed an MIC of over 100 µg/mL. In addition, the LD50 at 168 h in series [8] is 1000 mg/kg.
For the molecule `C=CCc1c(O)cc(O)c(C(=O)CC)c1O` [Compound 15], the MIC in series [1] was 250 µg/mL (≈ 1120 µM); in series [2], 125 µg/mL (≈ 562 µM); in series [3] it was 100 µg/mL (≈ 450 µM); in series [4] it was 50 µg/mL (≈ 225 µM); in series [5], 50 µg/mL (≈ 225 µM); in series [6], 25 µg/mL (≈ 112 µM). This molecule also displayed an MIC in series [7] of 50 µg/mL (≈ 225 µM). This molecule also displayed an LD50 at 168 h in series [8] of over 1000 mg/kg.
For `C=CCc1c(O)cc(O)c(C(=O)CCCC)c1O` [Compound 17], the MIC is 64 µg/mL (≈ 256 µM) in series [1]; 16 µg/mL (≈ 63.9 µM) in series [2]; 25 µg/mL (≈ 99.9 µM) in series [3]; 6 µg/mL (≈ 24 µM) in series [4]; 25 µg/mL (≈ 99.9 µM) in series [5]; 13 µg/mL (≈ 51.9 µM) in series [6]. In series [7], 13 µg/mL (≈ 51.9 µM) was the least that counted as inhibitory (MIC). Moreover, the LD50 at 168 h in series [8] is over 1000 mg/kg.
Consider `C=CCc1c(O)cc(O)c(C(=O)CCCCC)c1O` [Compound 18], for which the MIC was 16 µg/mL (≈ 60.5 µM) in series [1]; 8 µg/mL (≈ 30.3 µM) in series [2]; 13 µg/mL (≈ 49.2 µM) in series [3]; 6 µg/mL (≈ 22.7 µM) in series [4]; 13 µg/mL (≈ 49.2 µM) in series [5]; 6 µg/mL (≈ 22.7 µM) in series [6]. This molecule also returned an MIC in series [7] of 13 µg/mL (≈ 49.2 µM). Besides, the LD50 at 168 h in series [8] was over 1000 mg/kg.
Regarding `C=CCc1c(O)cc(O)c(C(=O)CCC(C)C)c1O` [Compound 19], the MIC amounted to 16 µg/mL (≈ 60.5 µM) in series [1]; 4 µg/mL (≈ 15.1 µM) in series [2]; 25 µg/mL (≈ 94.6 µM) in series [3]; 6 µg/mL (≈ 22.7 µM) in series [4]; 13 µg/mL (≈ 49.2 µM) in series [5]; 13 µg/mL (≈ 49.2 µM) in series [6]. Also, in series [7], the MIC was found to be 6 µg/mL (≈ 22.7 µM). In series [8], this molecule displayed an LD50 at 168 h of over 1000 mg/kg.
As to `C=CCc1c(O)cc(O)c(C(=O)C2CCCCC2)c1O` [Compound 20], the MIC in series [1] is 32 µg/mL (≈ 116 µM); in series [2], 8 µg/mL (≈ 29 µM); in series [3] it was 25 µg/mL (≈ 90.5 µM); in series [4], 13 µg/mL (≈ 47 µM); in series [5], 25 µg/mL (≈ 90.5 µM); in series [6], 13 µg/mL (≈ 47 µM). Also, the lowest concentration to inhibit growth in series [7] (MIC) was 25 µg/mL (≈ 90.5 µM). This molecule also displayed an LD50 at 168 h in series [8] of over 1000 mg/kg.
Regarding `C=CCc1c(O)cc(O)c(C(=O)Cc2ccc(Cl)cc2)c1O` [Compound 23], the MIC worked out at 32 µg/mL (≈ 100 µM) in series [1]; 8 µg/mL (≈ 25.1 µM) in series [2]; 13 µg/mL (≈ 40.8 µM) in series [3]; 6 µg/mL (≈ 18.8 µM) in series [4]; 25 µg/mL (≈ 78.4 µM) in series [5]; 13 µg/mL (≈ 40.8 µM) in series [6]. In series [7], the MIC came to 13 µg/mL (≈ 40.8 µM). The LD50 at 168 h in series [8] is over 1000 mg/kg.
Consider `CCCC(=O)c1c(O)cc(O)c(Cc2ccccc2)c1O` [Compound 24, 2-Butyryl-4-benzylphloroglucinol], for which the MIC in series [1] is 16 µg/mL (≈ 55.9 µM); in series [2], 8 µg/mL (≈ 27.9 µM); in series [3], 25 µg/mL (≈ 87.3 µM); in series [4] it was 13 µg/mL (≈ 45.4 µM); in series [5], 25 µg/mL (≈ 87.3 µM); in series [6] it was 13 µg/mL (≈ 45.4 µM). Moreover, in series [7], 6 µg/mL (≈ 21 µM) was the least that counted as inhibitory (MIC). The LD50 at 168 h in series [8] amounted to 1000 mg/kg.
Consider `CC(C)CCC(=O)c1c(O)cc(O)c(Cc2ccccc2)c1O` [Compound 25, 2-Isocaproyl-4-benzylphloroglucinol], for which the MIC came to 16 µg/mL (≈ 50.9 µM) in series [1]; 8 µg/mL (≈ 25.4 µM) in series [2]; 13 µg/mL (≈ 41.4 µM) in series [3]; 6 µg/mL (≈ 19.1 µM) in series [4]; 25 µg/mL (≈ 79.5 µM) in series [5]; 3 µg/mL (≈ 9.54 µM) in series [6]. For the same molecule, the MIC in series [7] was determined as 6 µg/mL (≈ 19.1 µM). Further, the LD50 at 168 h in series [8] was 1000 mg/kg.
